Measured values from patent US12458661B2, “Selenium disulfide compositions for use in treating meibomian gland dysfunction” (priority 2016, dated 2025).

Experiment: Aggregation of SeS2 on contact with aqueous medium
Type: physicochemical
Excerpt: Contacting SeS2 with aqueous medium causes immediate and spontaneous aggregation, such that SeS2 particles with an average size of 5 to 10 microns will form large aggregates of 50 to 500 microns average size. […] Surfactants and various suspending agents are required to stabilize SeS2 suspension in liquid and semi-solid dosage forms in order to enable its topical application.
Selenium disulfide forms agglomerates under aqueous conditions. Contacting selenium disulfide with aqueous medium causes immediate and spontaneous aggregation, causing selenium disulfide particles, with an initial average diameter of 5 to 10 μm, to aggregate into large clumps of 50 to 500 μm average diameter.

Question: With S=[Se]=S [SeS2, selenium disulfide] as the compound, how does the “Average size of aggregates formed on contact with aqueous medium” value (SeS2 particles of initial average size 5 to 10 microns) read?
Answer: 50 to 500 microns

Question: What about the “Average diameter of clumps formed on contact with aqueous medium” value (initial average diameter 5 to 10 μm) of the same compound?
Answer: 50 to 500 μm
